# Data as given in patent US7691418B2, “Composition for inhibiting or preventing the formation of a biofilm” (Oystershell NV, priority 2004, dated 2010).
# Key:
# [1] = system: glycosyltransferase (GTF); dextran sucrase of Leuconostoc mesenteroides; assay: GTF enzyme assay: insoluble dextran formation followed by turbidity at 690 nm; assay type: biochemical; conditions: positive controls: TRIS 2, 10, 100 mM; DJM 10 mM
# S. mutans biofilm = S. mutans biofilm formation on hydroxyl apatite discs in Modified Robbins Devices, SYTO 9 fluorescence; assay type: cell-based, Streptococcus mutans; conditions: FIG. 12; 5 μg/ml (sub-MIC)
# Text: A first example illustrates the influence of extracts according to the invention on the development of a S. mutans biofilm. Hereby a model system for the study of biofilm formation on discs was used. The system comprises the irrigation of a growing medium and micro-organisms on discs and to develop the formation of microbial biofilms thereon. The system permits to compare biomasses of biofilms which were and were not exposed to plant extracts according to the invention. Since teeth comprise hydroxyl apatite (HAP), discs comprising HAP (Clarkson Chromatography Products, South Williamsport, Pa., USA) were used for each experiment. […] Before starting biofilm experiments, the minimum inhibitory concentration (MIC value) was determined for each plant extract. […] Quantification of biofilm formation was done by putting the HAP discs in a microtiter plate, followed by staining the discs with a SYTO®9 solution, that stains the DNA of living bacteria as well as of dead bacteria. After an incubation period of approximately 15 minutes the microtiter plate was scanned in an automatic microtiter plate reader (Wallac 1420 Multilabel Counter (Victor^2™; Perkin Elmer Life and Analytical Sciences, Boston, Mass., USA) able to measure absorption as well as fluorescence and luminescence.
SMILES,absorption of formed dextran with known GTF inhibitors [1],average fluorescence values compared with positive control BHIS (S. mutans biofilm)
"OC[C@H]1NC[C@H](O)[C@@H](O)[C@@H]1O [DJM, 1-deoxynojirimycine]",decrease in absorption,
NC(CO)(CO)CO [TRIS],decrease in absorption,
Cc1cc(O)c2c(c1)C(=O)c1cc(O)cc(O)c1C2=O [emodin],,significantly lower that those of the positive control BHIS
